# In patent US11542254B2, “Methods and composition of 4-substituted benzoylpiperazine-1-substituted carbonyls as beta-catenin/B-cell lymphoma 9 inhibitors” (University of Utah Research Foundation, priority 2016, dated 2023):
# “Also recorded” adds a separate entry of the source. Structures can show the parent of a compound that is named as a salt. Where two headings read alike, the source gives them in different places.
# Assays:
# β-catenin/BCL9 PPI = β-catenin/BCL9 PPI (Homo sapiens (Human), UniProt P35222); assay: AlphaScreen competitive inhibition assay, wild-type β-catenin/BCL9 PPI; assay type: binding; settings: wild-type β-catenin/BCL9 PPI, AlphaScreen competitive inhibition, mean ± SD (n=3)
# Sequence of β-catenin/BCL9 PPI (P35222 138-686): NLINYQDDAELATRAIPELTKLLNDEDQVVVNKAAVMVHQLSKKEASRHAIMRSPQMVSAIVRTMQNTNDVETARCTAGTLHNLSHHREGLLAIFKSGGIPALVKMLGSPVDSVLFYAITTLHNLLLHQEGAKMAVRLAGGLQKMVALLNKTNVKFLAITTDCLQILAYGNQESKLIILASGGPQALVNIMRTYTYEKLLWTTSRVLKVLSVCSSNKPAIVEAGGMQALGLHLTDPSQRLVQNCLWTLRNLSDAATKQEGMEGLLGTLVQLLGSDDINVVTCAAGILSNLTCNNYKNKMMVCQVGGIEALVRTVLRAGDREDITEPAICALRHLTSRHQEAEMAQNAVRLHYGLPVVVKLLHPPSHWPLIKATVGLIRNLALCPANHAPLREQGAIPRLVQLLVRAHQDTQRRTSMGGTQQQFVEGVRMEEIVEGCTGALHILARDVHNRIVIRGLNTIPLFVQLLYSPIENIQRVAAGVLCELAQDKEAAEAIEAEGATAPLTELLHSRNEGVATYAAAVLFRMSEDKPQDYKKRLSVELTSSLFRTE
# Experimental: Cells were cultured in LB medium with 30 μg/mL kanamycin until the OD600 was approximately 0.8, and then protein expression was induced with 400 μM of IPTG at 20° C. overnight. Cells were lysed by sonication. […] Native non-denaturing gel electrophoresis was performed to confirm the homogeneity of the purified proteins. Thermal-shift assay was performed on an iCycler iQ Real Time Detection System (Bio-Rad) to monitor protein stability and detect protein aggregation. Protein unfolding was evaluated through measuring the fluorescence changes of fluorescent dye Sypro Orange when interacting with wild-type or mutant β-catenin proteins. A temperature increment of 1°/min was applied. […] All spectra were recorded at room temperature, and the baseline control containing all of the substances except protein. Sample were prepared at a concentration around 1-5 μM in a buffer of 10 mM potassium phosphate and 100 mM potassium fluoride at pH 7.0 to ensure that the transmission of light through the sample was not restricted. […] Proteins were aliquoted and stored at −80° C.
# 25. Alphascreen Competitive Inhibition Assays Using Wild-Type and Mutant β-Catenin Proteins
# SW480 cells = assay: MTS cell viability assay, SW480; assay type: cell-based; settings: read-out: IC50 ± SD
# Experimental: (§1) 26. MTS Cell Viability Assay
# (§2) Colorectal cancer cell lines, SW480 and HCT116 were seeded in 96-well plates at 4×10^3 cells/well, maintained overnight at 37° C., and incubated with the tested compounds at various concentrations. Cell viability was monitored after 72 h using a freshly prepared mixture of 1 part phenazine methosulfate (PMS, Sigma) solution (0.92 mg/mL) and 19 parts 3-(4,5-dimethylthiazol-2-yl)-5-(3-carboxymethoxyphenyl)-2-(4-sulfophenyl)-2H-tetrazolium (MTs, Promega) solution (2 mg/mL). Cells were incubated in 10 μL of this solution at 37° C. for 3 h, and A490 was measured. […] Experiments were performed in triplicate.
# HCT116 cells = assay: MTS cell viability assay, HCT116; assay type: cell-based; settings: read-out: IC50 ± SD
# Experimental: as §1, §2
# β-catenin D145A/BCL9 PPI = β-catenin D145A/BCL9 PPI (Homo sapiens (Human), UniProt P35222, D145A); assay: AlphaScreen competitive inhibition assay, β-catenin D145A mutant/BCL9 PPI; assay type: binding
# Sequence of β-catenin D145A/BCL9 PPI (P35222 138-686 D145A): as the sequence (P35222 138-686) above, with D8A counted along it
# Experimental: (§3) β-Catenin mutants D145A, E155A, D145A/E155A have been made previously.^5 Wild-type β-catenin and its mutants (residues 138-686) were cloned into a pET-28b vector carrying a C-terminal 6×histidine (Novagen), and transformed into Escherichia coli BL21 DE3 (Novagen). Cells were cultured in LB medium with 30 μg/mL kanamycin until the OD600 was approximately 0.8, and then protein expression was induced with 400 μM of IPTG at 20° C. overnight. Cells were lysed by sonication. […] The purity of β-catenin was greater than 95% as determined by SDS-PAGE gel analysis. Native non-denaturing gel electrophoresis was performed to confirm the homogeneity of the purified proteins. Thermal-shift assay was performed on an iCycler iQ Real Time Detection System (Bio-Rad) to monitor protein stability and detect protein aggregation. Protein unfolding was evaluated through measuring the fluorescence changes of fluorescent dye Sypro Orange when interacting with wild-type or mutant β-catenin proteins. A temperature increment of 1°/min was applied. CD spectra were measured on a J-815 spectropolarimeter (Jasco). All spectra were recorded at room temperature, and the baseline control containing all of the substances except protein. […]
# [1] = biological target: β-catenin D145A/E155A double mutant/BCL9 interaction (Homo sapiens (Human), UniProt P35222, D145A/E155A); assay: AlphaScreen competitive inhibition assay, β-catenin D145A/E155A double mutant/BCL9 interaction; assay type: binding; settings: read-out: Ki ± SD
# Sequence of β-catenin D145A/E155A double mutant/BCL9 interaction (P35222 138-686 D145A/E155A): as the sequence (P35222 138-686) above, with D8A, E18A counted along it
# Experimental: as §3
# [2] = test system: pcDNA3.1-β-catenin transfected HEK293 cells, TOPFlash (wild-type Tcf binding sites); assay: TOPFlash Wnt-responsive luciferase reporter assay; assay type: cell-based; settings: 24 h treatment, hydrochloride
# Experimental: (§4) 27. Cell Transfection and Luciferase Assay
# (§5) FuGENE 6 (E2962, Promega) in a 96-well plate format was used for the transfection of HEK293 and SW480 cells according to the manufacturer's instructions. HEK293 cells were co-transfected with 45 ng of the TOPFlash (with three wild-type Tcf binding sites) or FOPFlash (with three mutant Tcf binding sites) reporter gene, 135 ng pcDNA3.1-β-catenin and 20 ng pCMV-RL normalization reporter gene. SW480 cells were co-transfected with 60 ng of the TOPFlash or FOPFlash reporter gene and 40 ng pCMV-RL normalization reporter. Cells were cultured at 37° C. for 24 h, and different concentrations of inhibitors were then added. After 24 h, the luciferase reporter activity was measured using the Dual-Glo system (E2940, Promega). Normalized luciferase activity in response to the treatment with the inhibitors was compared with that obtained from the cells treated with DMSO. Experiments were performed in triplicate.
# [3] = test system: pcDNA3.1-β-catenin transfected HEK293 cells, FOPFlash (mutant Tcf binding sites); assay: FOPFlash luciferase reporter assay; assay type: cell-based; settings: up to 100 μM
# Experimental: as §4, §5
# β-catenin E155A/BCL9 PPI = β-catenin E155A/BCL9 PPI (Homo sapiens (Human), UniProt P35222, E155A); assay: AlphaScreen competitive inhibition assay, β-catenin E155A mutant/BCL9 PPI; assay type: binding
# Sequence of β-catenin E155A/BCL9 PPI (P35222 138-686 E155A): as the sequence (P35222 138-686) above, with E18A counted along it
# Experimental: as §3
# β-catenin/cadherin PPI = β-catenin/cadherin PPI (Homo sapiens (Human), UniProt P35222); assay: AlphaScreen selectivity assay, β-catenin/BCL9 over β-catenin/cadherin PPIs; assay type: binding; settings: in-parallel AlphaScreen selectivity assay
# Sequence of β-catenin/cadherin PPI (P35222 138-686): as the sequence (P35222 138-686) above
# Source text: Human BCL9 (residues 350-375), N-terminally biotinylated human BCL9 (residues 350-375), N-terminally fluorescein-labeled human BCL9 (residues 350-375), and N-terminally biotinylated human E-cadherin (residues 824-877) were synthesized by InnoPep Inc. (www.innopep.com) and HPLC purified by HPLC with purity>95%. The structures were validated by LC/MS. The sequences of these peptides have been described previously.^6
# The experimental details of the AlphaScreen competitive inhibition assays for the β-catenin/BCL9 and β-catenin/E-cadherin PPIs have been described previously.^5 The concentrations of mutant β-catenin proteins used in the AlphaScreen competitive inhibition assays were the same as that of wild-type β-catenin protein.
# The AlphaScreen selectivity assay was used to quantify inhibitor selectivity.
Structure (SMILES),Ki (β-catenin/BCL9 PPI) [µM],"IC50 (SW480 cells; Homo sapiens, SW480 colorectal cancer cells, MTS, 72 h) [µM]","IC50 (HCT116 cells; Homo sapiens, HCT-116, HCT116 colorectal cancer cells, MTS, 72 h) [µM]",Ki fold higher than for wild-type β-catenin/BCL9 PPI (β-catenin D145A/BCL9 PPI; β-catenin D145A/BCL9 PPI vs wild type),"Ki (β-catenin D145A/BCL9 PPI; β-catenin D145A/BCL9 PPI, AlphaScreen competitive inhibition, read-out: Ki ± SD) [µM]",Ki [1] [µM],TOPFlash luciferase activity [2],FOPFlash luciferase activity [3],"IC50 (SW480 cells; Homo sapiens, SW480, 72 h) [µM]",Ki fold higher than for wild-type β-catenin/BCL9 PPI (β-catenin E155A/BCL9 PPI; β-catenin E155A/BCL9 PPI vs wild type),"Ki (β-catenin E155A/BCL9 PPI; β-catenin E155A/BCL9 PPI, AlphaScreen competitive inhibition, read-out: Ki ± SD) [µM]",selectivity for β-catenin/BCL9 over β-catenin/cadherin PPIs (β-catenin/cadherin PPI) [fold],"IC50 (HCT116 cells; Homo sapiens, HCT-116, 72 h) [µM]","IC50 (SW480 cells; SW480 colorectal cancer cells, MTS, 72 h) [µM]","IC50 (HCT116 cells; HCT116 colorectal cancer cells, MTS, 72 h) [µM]"
"O=C(c1cc(F)cc(N2CCNCC2)c1)N1CCN(C(=O)c2ccc(O[C@H]3CCNC3)c(-c3ccc(F)cc3)c2)CC1 [Compound 2, (S)-(4-(3-fluoro-5-(piperazin-1-yl)benzoyl)piperazin-1-yl) (4′-fluoro-6-(pyrrolidin-3-yloxy)-[1,1′-biphenyl]-3-yl) methanone hydrochloride]",19,86 ± 8.8,120 ± 16,–,–,–,–,–,–,–,–,–,–,–,–
"Cl.Cl.O=C(c1cc(F)cc(N2CCNCC2)c1)N1CCN(C(=O)c2ccc(O[C@H]3CCNC3)c(C3CCCCC3)c2)CC1 [Compound 10, (S)-(4-(3-Cyclohexyl-4-(pyrrolidin-3-yloxy)benzoyl)piperazin-1-yl) (3-fluoro-5-(piperazin-1-yl)phenyl) methanone hydrochloride]",5.2,–,–,6-8 fold,29 ± 3,53 ± 4.2,suppressed the TOPFlash (with wild-type Tcf binding sites) luciferase activity in a dose-dependent manner; also recorded: suppress the transactivation of canonical Wnt signaling,did not affect,22 ± 4,6-8 fold,39 ± 3.3,98,26 ± 6.6,–,–
"CC1CCC(c2cc(C(=O)N3CCN(C(=O)c4cc(F)cc(N5CCNCC5)c4)CC3)ccc2O[C@H]2CCNC2)CC1.Cl (stereo partly drawn) [Compound 12, (S)-(4-(3-fluoro-5-(piperazin-1-yl)benzoyl)piperazin-1-yl) (3-(4-methylcyclohexyl)-4-(pyrrolidin-3-yloxy)phenyl) methanone hydrochloride]",–,–,–,–,–,–,suppressed the TOPFlash (with wild-type Tcf binding sites) luciferase activity in a dose-dependent manner; also recorded: suppress the transactivation of canonical Wnt signaling,–,–,–,–,–,–,44 ± 6.5,39 ± 5.4
